The target of the experiment is T1, S-adenosyl-L-homocysteine hydrolase from T. maritima (TmSAHase; iTmSAHase as purified, htTmSAHase after heat treatment) (Thermotoga maritima, UniProt O51933).
T1 sequence (O51933 1-404): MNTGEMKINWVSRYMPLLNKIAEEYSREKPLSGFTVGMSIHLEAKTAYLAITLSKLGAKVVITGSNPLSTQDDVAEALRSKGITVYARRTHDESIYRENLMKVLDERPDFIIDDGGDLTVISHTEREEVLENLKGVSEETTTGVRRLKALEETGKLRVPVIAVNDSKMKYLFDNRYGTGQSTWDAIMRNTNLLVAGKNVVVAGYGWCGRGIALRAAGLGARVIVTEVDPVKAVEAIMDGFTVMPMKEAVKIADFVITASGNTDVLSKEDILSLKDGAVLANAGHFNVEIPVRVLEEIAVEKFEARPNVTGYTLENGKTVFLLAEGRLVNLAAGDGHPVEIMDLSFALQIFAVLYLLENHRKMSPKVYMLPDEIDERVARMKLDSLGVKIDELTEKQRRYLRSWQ
Kind of experiment: isothermal titration calorimetry. The experiment is classed as binding.

For the compound `Nc1ncnc2c1ncn2[C@@H]1O[C@H](COP(=O)(O)O)[C@@H](O)[C@H]1O` [AMP, adenosine 5′-monophosphate], the Kd was determined as 25 ± 2 µM (htTmSAHase/AMP) and 30 ± 3 µM (iTmSAHase/AMP).

Take `Nc1ncnc2c1ncn2[C@@H]1O[C@H](CO)[C@@H](O)[C@H]1O` [Ado, adenosine]: the Kd reads like this: (htTmSAHase/Ado) 8.8 ± 1.2 µM; (iTmSAHase/Ado) 19 ± 1.5 µM.
